# Reference: patent publication US20230338609A1, “MEDICAL DEVICES AND MATERIALS COMPRISING BIODEGRADABLE POLYESTERS” (AMICOAT AS, priority 2020, published 2023)
# Columns and labels:
# [1] = test system: Corynebacterium jeikeium - antibiotic-susceptible clinical isolate; type: cell-based
# From the text: (§1) Cation-adjusted Mueller-Hinton broth (Oxoid Ltd., Basingstoke, UK and Trek Diagnostic Systems Ltd., East Grinstead, UK) (supplemented with 5% laked horse blood for Streptococcus spp., Corynebacterium jeikeium and Listeria monocytogenes) was used for aerobic bacteria, with an initial inoculum of approximately 10^5 colony-forming units (CFU)/mL.
# [2] = test system: Staphylococcus saprophyticus - antibiotic susceptible clinical isolate; type: cell-based
# From the text: as §1
# [3] = test system: Klebsiella aerogenes NCTC11228 - antibiotic-susceptible type strain; type: cell-based
# From the text: as §1
# [4] = test system: Enterococcus faecium vancomycin-resistant (VanA) clinical isolate; type: cell-based
# From the text: as §1
# [5] = test system: Enterococcus gallinarum vancomycin-resistant (VanC) clinical isolate; type: cell-based
# From the text: as §1
# [6] = test system: Escherichia coli ATCC32518 - β-lactamase positive type strain; type: cell-based
# From the text: as §1
# [7] = test system: Streptococcus pyogenes - Macrolide (MLS) resistant clinical isolate; type: cell-based
# From the text: as §1
# [8] = test system: Staphylococcus aureus ATCC 29213 - antibiotic-susceptible control strain; type: cell-based
# From the text: as §1
# [9] = test system: Staphylococcus aureus - multi-drug-resistant clinical isolate; type: cell-based
# From the text: as §1
# [10] = test system: Group G Streptococcus - macrolide-resistant clinical isolate; type: cell-based
# From the text: as §1
# [11] = test system: EMRSA3 Staphylococcus aureus (MRSA) - SSCmec type 1; type: cell-based; details: EMRSA3 - SSCmec type 1
# From the text: as §1
# [12] = test system: Enterobacter sp - multi-drug resistant clinical isolate; type: cell-based
# From the text: as §1
# [13] = test system: EMRSA1 Staphylococcus aureus (MRSA) - SSCmec type 3; type: cell-based; details: EMRSA1 - SSCmec type 3
# From the text: as §1
# [14] = test system: Staphylococcus epidermidis methicillin-resistant clinical isolate; type: cell-based
# From the text: as §1
# [15] = test system: Escherichia coli - multi-drug resistant clinical isolate; type: cell-based
# From the text: as §1
# [16] = test system: Enterococcus faecalis vancomycin-susceptible clinical isolate; type: cell-based
# From the text: as §1
# [17] = test system: HT2001254 Staphylococcus aureus (MRSA) - PVL positive; type: cell-based
# From the text: as §1
# [18] = test system: Streptococcus pneumoniae - penicillin-susceptible clinical isolate; type: cell-based
# From the text: as §1
# [19] = test system: Staphylococcus aureus ATCC 25923 - antibiotic-susceptible control strain; type: cell-based
# From the text: as §1
# [20] = test system: Enterococcus faecium vancomycin-resistant (VanB) clinical isolate; type: cell-based
# From the text: as §1
# [21] = test system: Staphylococcus epidermidis antibiotic susceptible clinical isolate; type: cell-based
# From the text: as §1
# [22] = test system: Streptococcus agalactiae - antibiotic-susceptible clinical isolate; type: cell-based
# From the text: as §1
# [23] = test system: Staphylococcus aureus - teicoplanin-intermediate clinical isolate; type: cell-based
# From the text: as §1
# [24] = test system: Klebsiella aerogenes - multi-drug resistant clinical isolate; type: cell-based
# From the text: as §1
# [25] = test system: Enterococcus faecalis high-level gentamicin-resistant clinical isolate; type: cell-based
# From the text: as §1
# [26] = test system: MU50 Staphylococcus aureus (MRSA) - VISA type strain; type: cell-based
# From the text: as §1
# [27] = test system: Enterococcus faecium vancomycin-susceptible clinical isolate; type: cell-based
# From the text: as §1
# [28] = test system: Streptococcus bovis - antibiotic-susceptible clinical isolate; type: cell-based
# From the text: as §1
# [29] = test system: Streptococcus bovis - macrolide-resistant clinical isolate; type: cell-based
# From the text: as §1
# [30] = test system: Enterococcus faecalis - ATCC 29212 antibiotic-susceptible control strain; type: cell-based
# From the text: as §1
# C. albicans = details: Table 5
# [31] = test system: Candida tropicalis ATCC750 - reference strain; type: cell-based
# Experimental: (§2) Yeast and filamentous fungal MIC were performed in MOPS buffered RPMI 1640 medium (MOPS buffer obtained from Sigma Aldrich Ltd., RPMI 1640 obtained from Invitrogen Ltd, Paisley, Scotland). The yeast inocula were in the range 7.5×10^2-4×10^3 CFU/mL and the filamentous fungi approximately 8×10^3-1×10^5 CFU/mL
# [32] = test system: Trichophyton mentagrophytes - G.R. Micro collection; type: cell-based
# Experimental: as §2
# [33] = test system: Candida albicans ATCC24433 - reference strain; type: cell-based
# Experimental: as §2
# [34] = test system: Trichophyton interdigitale - G.R. Micro collection; type: cell-based
# Experimental: as §2
# [35] = test system: Candida albicans ATCC90028 - reference strain; type: cell-based
# Experimental: as §2
# [36] = test system: Aspergillus niger - G.R. Micro collection; type: cell-based
# Experimental: as §2
# [37] = test system: Microsporum canis - G.R. Micro collection; type: cell-based
# Experimental: as §2
# [38] = test system: Cryptococcus neoformans - G.R. Micro collection; type: cell-based
# Experimental: as §2
# [39] = test system: Candida parapsilosis ATCC90018 - reference strain; type: cell-based
# Experimental: as §2
smiles,measurement,setting,value
CCCCCCNC(=O)[C@H](CCCNC(=N)N)NC(=O)[C@H](Cc1c(C(C)(C)C)[nH]c2c(C(C)(C)C)cc(C(C)(C)C)cc12)NC(=O)[C@@H](N)CCCNC(=N)N [Compound 8],MIC,[1],4 µg/mL
same,MIC,[2],0.5 µg/mL
same,MIC,[3],8 µg/mL
same,MIC,[4],4 µg/mL
same,MIC,[5],4 µg/mL
same,MIC,[6],8 µg/mL
same,MIC,[7],8 µg/mL
same,MIC,[8],4 µg/mL
same,MIC,[9],4 µg/mL
same,MIC,[10],8 µg/mL
same,MIC,[11],4 µg/mL
same,MIC,[12],8 µg/mL
same,MIC,[13],4 µg/mL
same,MIC,[14],2 µg/mL
same,MIC,[15],8 µg/mL
same,MIC,[16],4 µg/mL
same,MIC,[17],4 µg/mL
same,MIC,[18],8 µg/mL
same,MIC,[19],4 µg/mL
same,MIC,[20],4 µg/mL
same,MIC,[21],8 µg/mL
same,MIC,[22],8 µg/mL
same,MIC,[23],4 µg/mL
same,MIC,[24],8 µg/mL
same,MIC,[25],8 µg/mL
same,MIC,[26],4 µg/mL
same,MIC,[27],4 µg/mL
same,MIC,[28],8 µg/mL
same,MIC,[29],2 µg/mL
same,MIC,[30],4 µg/mL
same,C. albicans (MIC),C. albicans,5 µg/mL
same,MIC,[31],4 µg/mL
same,MIC,[32],4 µg/mL
same,MIC,[33],8 µg/mL
same,MIC,[34],4 µg/mL
same,MIC,[35],4 µg/mL
same,MIC,[36],4 µg/mL
same,MIC,[37],4 µg/mL
same,MIC,[38],2 µg/mL
same,MIC,[39],8 µg/mL
